Reference: PubChem BioAssay (NCI)
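GI50 = concentration required for 50% inhibition of growth. TGI is the concentration that stops growth completely.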

Legend:
Test in all cases: inhibition of tumour cell growth, NCI panel, 384-well format
HCC-2998 colon = system: HCC-2998 colon
UACC-257 melanoma = system: UACC-257 melanoma
SK-OV-3 ovarian = system: SK-OV-3 ovarian
SW-620 colon = system: SW-620 colon
OVCAR-4 ovarian = system: OVCAR-4 ovarian
NCI-H322M lung = system: NCI-H322M lung
HS 578T breast = system: HS 578T breast
SNB-75 CNS = system: SNB-75 CNS
MALME-3M melanoma = system: MALME-3M melanoma
DU-145 prostate = system: DU-145 prostate
KM12 colon = system: KM12 colon
EKVX NSCLC = system: EKVX NSCLC
SK-MEL-28 melanoma = system: SK-MEL-28 melanoma
SNB-19 CNS = system: SNB-19 CNS
SN12C renal = system: SN12C renal
PC-3 prostate = system: PC-3 prostate
COLO 205 colon = system: COLO 205 colon
NCI/ADR-RES ovarian = system: NCI/ADR-RES ovarian
K-562 leukemia = system: K-562 leukemia
NCI-H226 lung = system: NCI-H226 lung
HOP-92 NSCLC = system: HOP-92 NSCLC
SK-MEL-5 melanoma = system: SK-MEL-5 melanoma
CAKI-1 renal = system: CAKI-1 renal
M14 melanoma = system: M14 melanoma
MOLT-4 leukemia = system: MOLT-4 leukemia
U251 glioblastoma = system: U251 glioblastoma
SF-295 CNS = system: SF-295 CNS
ACHN renal = system: ACHN renal
CCRF-CEM leukemia = system: CCRF-CEM leukemia
HL-60(TB) leukemia = system: HL-60(TB) leukemia
HCT-116 colon = system: HCT-116 colon
MDA-MB-435 melanoma = system: MDA-MB-435 melanoma
T-47D breast = system: T-47D breast
UACC-62 melanoma = system: UACC-62 melanoma
MDA-MB-468 breast = system: MDA-MB-468 breast
SF-539 CNS = system: SF-539 CNS
NCI-H460 NSCLC = system: NCI-H460 NSCLC
HOP-62 NSCLC = system: HOP-62 NSCLC
UO-31 renal = system: UO-31 renal
NCI-H522 lung = system: NCI-H522 lung
TK-10 renal = system: TK-10 renal
MCF7 breast = system: MCF7 breast
HCT-15 colon = system: HCT-15 colon
MDA-MB-231 breast = system: MDA-MB-231 breast
RPMI-8226 leukemia = system: RPMI-8226 leukemia
BT-549 breast = system: BT-549 breast
LOX IMVI melanoma = system: LOX IMVI melanoma
NCI-H23 lung = system: NCI-H23 lung
IGROV1 ovarian = system: IGROV1 ovarian
786-0 renal = system: 786-0 renal
OVCAR-8 ovarian = system: OVCAR-8 ovarian
A549 NSCLC = system: A549 NSCLC
RXF 393 renal = system: RXF 393 renal
OVCAR-5 ovarian = system: OVCAR-5 ovarian
A498 renal = system: A498 renal
SF-268 CNS = system: SF-268 CNS
OVCAR-3 ovarian = system: OVCAR-3 ovarian
HT29 colon = system: HT29 colon

With `C[C@H]1COCCN1c1cc(C2(S(=O)(=O)C3CC3)CC2)nc(-c2ccc(NC(=S)NCCO)cc2)n1` the GI50 (HCC-2998 colon) was 98.6 nM, the TGI (HCC-2998 colon) was 18600 nM and the GI50 (UACC-257 melanoma) was 46.3 nM. For the same compound, the TGI (UACC-257 melanoma) was 827 nM, the GI50 (SK-OV-3 ovarian) was 20.1 nM and the TGI (SK-OV-3 ovarian) was 626 nM. The GI50 (SW-620 colon) was 130 nM, the TGI (SW-620 colon) was 17800 nM and the GI50 (OVCAR-4 ovarian) was 31.8 nM. It also gave a TGI (OVCAR-4 ovarian) of 340 nM, a GI50 (NCI-H322M lung) of 27.4 nM and a TGI (NCI-H322M lung) of 15500 nM. The GI50 (HS 578T breast) was less than 10 nM, the TGI (HS 578T breast) was 35.5 nM and the GI50 (SNB-75 CNS) was less than 10 nM. The TGI (SNB-75 CNS) was 50.5 nM, the GI50 (MALME-3M melanoma) was less than 10 nM and the TGI (MALME-3M melanoma) was 84.3 nM. It also gave a GI50 (DU-145 prostate) of 59.1 nM, a TGI (DU-145 prostate) of 18800 nM and a GI50 (KM12 colon) of 27.8 nM. It also gave a TGI (KM12 colon) of 17600 nM, a GI50 (EKVX NSCLC) of 40.2 nM and a TGI (EKVX NSCLC) of 1570 nM. The GI50 (SK-MEL-28 melanoma) was 26.2 nM, the TGI (SK-MEL-28 melanoma) was 564 nM and the GI50 (SNB-19 CNS) was 100 nM. For the same compound, the TGI (SNB-19 CNS) was 50200 nM, the GI50 (SN12C renal) was 18.4 nM and the TGI (SN12C renal) was 12200 nM. It also gave a GI50 (PC-3 prostate) of 16.7 nM, a TGI (PC-3 prostate) of 4390 nM and a GI50 (COLO 205 colon) of 19.6 nM. It also gave a TGI (COLO 205 colon) of 3340 nM, a GI50 (NCI/ADR-RES ovarian) of 6720 nM and a TGI (NCI/ADR-RES ovarian) greater than 100000 nM. For the same compound, the GI50 (K-562 leukemia) was 41.6 nM, the TGI (K-562 leukemia) was 16100 nM and the GI50 (NCI-H226 lung) was 19.1 nM. It also gave a TGI (NCI-H226 lung) of 101 nM, a GI50 (HOP-92 NSCLC) of 25.7 nM and a TGI (HOP-92 NSCLC) of 601 nM. The GI50 (SK-MEL-5 melanoma) was 11.8 nM, the TGI (SK-MEL-5 melanoma) was 58.5 nM and the GI50 (CAKI-1 renal) was 17.8 nM. The TGI (CAKI-1 renal) was 214 nM, the GI50 (M14 melanoma) was 20.7 nM and the TGI (M14 melanoma) was 1830 nM. It also gave a GI50 (MOLT-4 leukemia) of less than 10 nM, a TGI (MOLT-4 leukemia) of 1070 nM and a GI50 (U251 glioblastoma) of 57.2 nM. It also gave a TGI (U251 glioblastoma) of 14900 nM, a GI50 (SF-295 CNS) of 34.4 nM and a TGI (SF-295 CNS) of 335 nM. For the same compound, the GI50 (ACHN renal) was 55.1 nM, the TGI (ACHN renal) was 11800 nM and the GI50 (CCRF-CEM leukemia) was 20.6 nM. For the same compound, the TGI (CCRF-CEM leukemia) was 1630 nM, the GI50 (HL-60(TB) leukemia) was 618 nM and the TGI (HL-60(TB) leukemia) was 15200 nM. The GI50 (HCT-116 colon) was 119 nM, the TGI (HCT-116 colon) was 16500 nM and the GI50 (MDA-MB-435 melanoma) was 41.5 nM. It also gave a TGI (MDA-MB-435 melanoma) of 3460 nM, a GI50 (T-47D breast) of less than 10 nM and a TGI (T-47D breast) of 17.9 nM. It also gave a GI50 (UACC-62 melanoma) of 15 nM, a TGI (UACC-62 melanoma) of 100 nM and a GI50 (MDA-MB-468 breast) of less than 10 nM. The TGI (MDA-MB-468 breast) was 31.9 nM, the GI50 (SF-539 CNS) was 29.7 nM and the TGI (SF-539 CNS) was 598 nM. For the same compound, the GI50 (NCI-H460 NSCLC) was less than 10 nM, the TGI (NCI-H460 NSCLC) was 11500 nM and the GI50 (HOP-62 NSCLC) was 39.1 nM. It also gave a TGI (HOP-62 NSCLC) of 540 nM, a GI50 (UO-31 renal) of 121 nM and a TGI (UO-31 renal) of 14000 nM. It also gave a GI50 (NCI-H522 lung) of less than 10 nM, a TGI (NCI-H522 lung) of 6640 nM and a GI50 (TK-10 renal) of 92.6 nM. For the same compound, the TGI (TK-10 renal) was 900 nM, the GI50 (MCF7 breast) was less than 10 nM and the TGI (MCF7 breast) was 5510 nM. It also gave a GI50 (HCT-15 colon) of 126 nM, a TGI (HCT-15 colon) of 86300 nM and a GI50 (MDA-MB-231 breast) of 34.2 nM. It also gave a TGI (MDA-MB-231 breast) greater than 100000 nM, a GI50 (RPMI-8226 leukemia) of 12 nM and a TGI (RPMI-8226 leukemia) of 85.3 nM. The GI50 (BT-549 breast) was 16 nM, the TGI (BT-549 breast) was 121 nM and the GI50 (LOX IMVI melanoma) was 27.6 nM. It also gave a TGI (LOX IMVI melanoma) of 640 nM, a GI50 (NCI-H23 lung) of 83.1 nM and a TGI (NCI-H23 lung) of 12500 nM. For the same compound, the GI50 (IGROV1 ovarian) was less than 10 nM, the TGI (IGROV1 ovarian) was 41.9 nM and the GI50 ([…]-0 renal) was 50.8 nM. For the same compound, the TGI (786-0 renal) was 12600 nM, the GI50 (OVCAR-8 ovarian) was 53.4 nM and the TGI (OVCAR-8 ovarian) was 12700 nM. For the same compound, the GI50 (A549 NSCLC) was 28.9 nM, the TGI (A549 NSCLC) was 1410 nM and the GI50 (RXF 393 renal) was 25.9 nM. For the same compound, the TGI (RXF 393 renal) was 310 nM, the GI50 (OVCAR-5 ovarian) was 51.8 nM and the TGI (OVCAR-5 ovarian) was 7110 nM. It also gave a GI50 (A498 renal) of less than 10 nM, a TGI (A498 renal) of 53.1 nM and a GI50 (SF-268 CNS) of less than 10 nM. The TGI (SF-268 CNS) was 28.9 nM, the GI50 (OVCAR-3 ovarian) was 38 nM and the TGI (OVCAR-3 ovarian) was 6600 nM. For the same compound, the GI50 (HT29 colon) was 79.3 nM and the TGI (HT29 colon) was 15800 nM.
